This passage reports Ki results from ChEMBL document CHEMBL1148790, “Synthesis, molecular modeling studies, and preliminary pharmacological characterization of all possible 2-(2'-sulfonocyclopropyl)glycine stereoisomers as conformationally constrained L-homocysteic acid analogs” (J Med Chem, 2007).

The structures appear in SMILES notation.

One may read the Ki as a measure of affinity in units of concentration, obtained from inhibition or displacement. High values mean a looser hold on the target, low ones a stronger hold on the target.

Assay [1] addresses Glutamate NMDA receptor. Kind of assay: Displacement of [3H]CGP-39653 from rat NMDA receptor in rat brain membranes. In general terms: In a radioligand displacement assay an active substance lowers the binding of a labelled ligand.
For assay [2], the target named is Metabotropic glutamate receptor 5 (Homo sapiens, UniProt P41594). Kind of assay: Binding affinity to mGluR5 receptor expressed in BHK cells. Type of assay: cell-based.
Chain of Metabotropic glutamate receptor 5 (P41594 whole entry): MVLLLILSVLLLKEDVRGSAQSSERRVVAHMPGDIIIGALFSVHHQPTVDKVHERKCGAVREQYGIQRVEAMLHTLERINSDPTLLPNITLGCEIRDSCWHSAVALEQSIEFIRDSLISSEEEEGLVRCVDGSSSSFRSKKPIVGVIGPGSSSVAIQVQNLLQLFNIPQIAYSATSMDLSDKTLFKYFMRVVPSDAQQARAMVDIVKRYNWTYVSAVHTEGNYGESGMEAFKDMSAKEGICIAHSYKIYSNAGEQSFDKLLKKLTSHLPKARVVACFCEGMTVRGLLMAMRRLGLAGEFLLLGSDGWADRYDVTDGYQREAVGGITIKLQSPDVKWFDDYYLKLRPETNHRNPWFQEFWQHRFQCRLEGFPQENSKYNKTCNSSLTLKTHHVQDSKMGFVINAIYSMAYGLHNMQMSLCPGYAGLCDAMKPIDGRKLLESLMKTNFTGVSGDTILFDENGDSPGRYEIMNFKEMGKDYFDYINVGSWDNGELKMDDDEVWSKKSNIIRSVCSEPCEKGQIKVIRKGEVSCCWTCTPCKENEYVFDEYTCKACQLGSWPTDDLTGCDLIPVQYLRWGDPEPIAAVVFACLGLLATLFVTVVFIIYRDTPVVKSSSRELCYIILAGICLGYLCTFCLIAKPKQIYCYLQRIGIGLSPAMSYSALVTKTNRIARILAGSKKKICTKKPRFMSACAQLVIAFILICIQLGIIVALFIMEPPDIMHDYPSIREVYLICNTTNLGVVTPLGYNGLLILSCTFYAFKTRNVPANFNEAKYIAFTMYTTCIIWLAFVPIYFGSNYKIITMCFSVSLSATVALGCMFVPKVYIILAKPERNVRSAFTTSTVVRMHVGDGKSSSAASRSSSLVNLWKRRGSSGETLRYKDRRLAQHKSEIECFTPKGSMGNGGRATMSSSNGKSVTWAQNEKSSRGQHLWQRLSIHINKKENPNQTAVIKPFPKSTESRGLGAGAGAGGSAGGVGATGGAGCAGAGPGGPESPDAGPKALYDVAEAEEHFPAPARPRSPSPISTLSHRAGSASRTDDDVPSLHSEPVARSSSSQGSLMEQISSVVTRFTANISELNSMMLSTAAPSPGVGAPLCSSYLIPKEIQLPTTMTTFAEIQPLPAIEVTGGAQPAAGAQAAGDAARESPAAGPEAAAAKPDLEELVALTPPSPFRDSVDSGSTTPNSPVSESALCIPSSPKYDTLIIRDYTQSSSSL
Assay [3] deals with Metabotropic glutamate receptor 2 (Homo sapiens, UniProt Q14416). The assay can be described thus: Displacement of [3H]LY341495 from mGluR2 receptor expressed in BHK cells. In kind it is cell-based.
Chain of Metabotropic glutamate receptor 2 (Q14416 whole entry): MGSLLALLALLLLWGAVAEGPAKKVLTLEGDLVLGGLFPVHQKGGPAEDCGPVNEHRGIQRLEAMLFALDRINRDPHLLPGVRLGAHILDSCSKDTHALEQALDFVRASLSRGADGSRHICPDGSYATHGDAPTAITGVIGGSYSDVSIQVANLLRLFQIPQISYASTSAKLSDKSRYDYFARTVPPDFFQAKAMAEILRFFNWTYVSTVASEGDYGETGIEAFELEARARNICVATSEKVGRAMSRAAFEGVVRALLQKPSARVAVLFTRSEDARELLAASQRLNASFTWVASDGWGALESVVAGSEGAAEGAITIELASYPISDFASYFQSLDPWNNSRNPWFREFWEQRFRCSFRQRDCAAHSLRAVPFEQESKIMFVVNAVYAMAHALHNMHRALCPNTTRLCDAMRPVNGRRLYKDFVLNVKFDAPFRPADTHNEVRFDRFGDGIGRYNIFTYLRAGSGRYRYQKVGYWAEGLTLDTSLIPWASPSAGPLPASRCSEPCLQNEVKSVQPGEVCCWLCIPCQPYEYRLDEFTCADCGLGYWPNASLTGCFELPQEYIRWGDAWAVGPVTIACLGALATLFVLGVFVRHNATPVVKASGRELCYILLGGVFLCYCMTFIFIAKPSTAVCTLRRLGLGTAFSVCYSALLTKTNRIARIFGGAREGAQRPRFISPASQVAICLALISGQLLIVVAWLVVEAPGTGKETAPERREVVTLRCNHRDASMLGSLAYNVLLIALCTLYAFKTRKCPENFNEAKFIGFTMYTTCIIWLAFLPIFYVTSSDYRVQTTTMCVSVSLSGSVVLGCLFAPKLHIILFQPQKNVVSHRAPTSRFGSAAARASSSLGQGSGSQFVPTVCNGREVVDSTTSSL
In assay [4] the target is Metabotropic glutamate receptor 1 (Homo sapiens, UniProt Q13255). Kind of assay: Displacement of [3H]quisqualate from mGluR1 receptor expressed in BHK cells. Type of assay: cell-based.
Chain of Metabotropic glutamate receptor 1 (Q13255 whole entry): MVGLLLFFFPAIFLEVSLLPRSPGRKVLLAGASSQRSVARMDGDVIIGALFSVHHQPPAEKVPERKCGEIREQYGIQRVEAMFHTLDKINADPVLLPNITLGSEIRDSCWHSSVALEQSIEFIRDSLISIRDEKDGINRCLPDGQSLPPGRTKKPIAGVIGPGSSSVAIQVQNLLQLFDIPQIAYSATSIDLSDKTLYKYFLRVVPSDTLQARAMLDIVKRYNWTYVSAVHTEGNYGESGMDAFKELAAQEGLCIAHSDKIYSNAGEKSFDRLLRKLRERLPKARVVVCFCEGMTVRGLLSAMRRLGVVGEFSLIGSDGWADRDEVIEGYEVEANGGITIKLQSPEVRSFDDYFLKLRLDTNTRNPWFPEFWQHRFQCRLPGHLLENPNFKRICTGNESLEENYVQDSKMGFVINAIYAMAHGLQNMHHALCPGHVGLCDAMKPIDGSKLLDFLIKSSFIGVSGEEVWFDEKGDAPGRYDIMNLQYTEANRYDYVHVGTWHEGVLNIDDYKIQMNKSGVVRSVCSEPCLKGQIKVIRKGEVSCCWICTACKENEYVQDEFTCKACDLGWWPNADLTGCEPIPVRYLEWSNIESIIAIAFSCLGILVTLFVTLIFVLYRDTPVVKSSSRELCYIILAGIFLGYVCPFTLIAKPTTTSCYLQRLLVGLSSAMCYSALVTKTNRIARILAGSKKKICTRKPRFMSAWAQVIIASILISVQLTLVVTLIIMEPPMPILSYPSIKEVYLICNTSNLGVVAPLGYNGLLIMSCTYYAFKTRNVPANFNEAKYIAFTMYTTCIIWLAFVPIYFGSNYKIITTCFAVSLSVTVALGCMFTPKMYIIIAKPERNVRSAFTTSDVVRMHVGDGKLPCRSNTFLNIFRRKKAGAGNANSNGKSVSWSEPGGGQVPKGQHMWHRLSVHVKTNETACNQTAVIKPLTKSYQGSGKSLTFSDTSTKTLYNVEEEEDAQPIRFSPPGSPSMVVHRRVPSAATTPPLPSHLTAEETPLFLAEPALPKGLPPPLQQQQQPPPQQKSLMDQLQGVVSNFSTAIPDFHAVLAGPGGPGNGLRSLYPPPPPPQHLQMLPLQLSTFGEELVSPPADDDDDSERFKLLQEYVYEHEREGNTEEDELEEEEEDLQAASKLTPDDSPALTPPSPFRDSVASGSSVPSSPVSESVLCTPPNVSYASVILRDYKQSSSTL
The nature of assay [5]: Displacement of [3H]AMPA from rat AMPA receptor in rat brain membranes.
For assay [6], the target named is Metabotropic glutamate receptor 4 (Homo sapiens, UniProt Q14833). The assay can be described thus: Displacement of [3H]LAP4 from mGluR4 receptor expressed in BHK cells. In kind it is cell-based.
Chain of Metabotropic glutamate receptor 4 (Q14833 whole entry): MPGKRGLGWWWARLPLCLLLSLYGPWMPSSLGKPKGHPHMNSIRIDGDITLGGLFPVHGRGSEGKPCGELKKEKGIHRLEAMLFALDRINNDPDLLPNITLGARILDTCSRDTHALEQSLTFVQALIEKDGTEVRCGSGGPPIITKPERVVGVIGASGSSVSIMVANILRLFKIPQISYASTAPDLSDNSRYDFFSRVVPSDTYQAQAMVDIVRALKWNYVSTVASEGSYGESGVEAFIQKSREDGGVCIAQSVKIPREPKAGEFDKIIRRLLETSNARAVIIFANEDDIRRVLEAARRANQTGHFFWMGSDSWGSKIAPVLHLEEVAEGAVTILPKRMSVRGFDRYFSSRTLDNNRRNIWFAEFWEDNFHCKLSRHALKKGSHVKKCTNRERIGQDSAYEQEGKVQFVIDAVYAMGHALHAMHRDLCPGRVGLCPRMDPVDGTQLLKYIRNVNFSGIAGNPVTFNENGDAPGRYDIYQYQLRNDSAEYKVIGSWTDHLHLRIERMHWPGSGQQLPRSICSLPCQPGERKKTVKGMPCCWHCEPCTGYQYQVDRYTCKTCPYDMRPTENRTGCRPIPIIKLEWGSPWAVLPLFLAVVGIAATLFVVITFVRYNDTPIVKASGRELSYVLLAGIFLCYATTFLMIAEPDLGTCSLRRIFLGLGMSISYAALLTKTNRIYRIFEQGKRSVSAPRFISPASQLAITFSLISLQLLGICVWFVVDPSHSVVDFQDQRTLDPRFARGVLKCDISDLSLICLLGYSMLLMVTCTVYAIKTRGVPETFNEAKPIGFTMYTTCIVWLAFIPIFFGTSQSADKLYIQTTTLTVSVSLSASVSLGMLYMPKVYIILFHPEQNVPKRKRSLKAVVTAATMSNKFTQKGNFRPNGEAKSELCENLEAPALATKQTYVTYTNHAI
A short description of assay [7]: Displacement of [3H]kainic acid from rat KA receptor in rat brain membranes.

As to `N[C@H](C(=O)O)[C@@H]1C[C@@H]1C(=O)O`, the inhibition constant Ki in assay [1] is 0.009 µM.

Turning to `N[C@@H](C(=O)O)[C@@H]1C[C@@H]1S(=O)(=O)O`, the Ki was more than 300 µM in assay [2]; more than 300 µM in assay [3]; more than 300 µM in assay [4]; more than 300 µM in assay [5]; more than 300 µM in assay [6]; 35 µM in assay [7]. Further, the Ki in assay [1] was more than 300 µM.

As for `N[C@H](C(=O)O)[C@H]1C[C@H]1S(=O)(=O)O`, the inhibitory constant (Ki) in assay [2], in assay [3], in assay [4], in assay [5], in assay [6] and in assay [7] was more than 300 µM in each case. Moreover, the inhibition constant Ki in assay [1] was more than 300 µM.

In the case of `N[C@@H](C(=O)O)[C@H]1C[C@H]1S(=O)(=O)O`, the Ki in assay [2] was 55 µM; in assay [3], more than 300 µM; in assay [4], more than 300 µM; in assay [5] it was 72 µM; in assay [6], more than 300 µM; in assay [7] it was 64 µM. Moreover, the Ki in assay [1] was found to be 61 µM.

Regarding `N[C@@H](C(=O)O)[C@H]1C[C@@H]1S(=O)(=O)O`, the inhibition constant (Ki) in assay [2] was more than 300 µM; in assay [3], more than 300 µM; in assay [4], more than 300 µM; in assay [5] it was 96 µM; in assay [6], more than 300 µM; in assay [7], 34 µM. In addition, in assay [1], the Ki turned out to be 22 µM.

Take `N[C@H](C(=O)O)[C@H]1C[C@@H]1S(=O)(=O)O`: the inhibition constant (Ki) is 49 µM in assay [2]; 235 µM in assay [3]; 34 µM in assay [4]; more than 300 µM in assay [5]; more than 300 µM in assay [6]; more than 300 µM in assay [7]. The inhibitory constant (Ki) in assay [1] was more than 300 µM.

Consider `N[C@@H](CCS(=O)(=O)O)C(=O)O`, for which the inhibition constant Ki was 54 µM in assay [2]; more than 300 µM in assay [3]; 87 µM in assay [4]; 2.4 µM in assay [5]; 53 µM in assay [6]; 9.9 µM in assay [7]. The compound further displayed a Ki in assay [1] of 2.7 µM.

Regarding `N[C@H](C(=O)O)[C@@H]1C[C@@H]1S(=O)(=O)O`, the inhibitory constant (Ki) in assay [2] is more than 300 µM; in assay [3], more than 300 µM; in assay [4], more than 300 µM; in assay [5], 0.1 µM; in assay [6], more than 300 µM; in assay [7] it was 3.3 µM. This compound also yielded a Ki in assay [1] of 19 µM.

On to `N[C@@H](C(=O)O)[C@@H]1C[C@H]1S(=O)(=O)O`, for which the Ki in assay [2] is 67 µM; in assay [3] it was more than 300 µM; in assay [4], 254 µM; in assay [5] it was 72 µM; in assay [6] it was more than 300 µM; in assay [7], 71 µM. For the same compound, the affinity in assay [1], expressed as Ki, was 150 µM.

In the case of `N[C@H](C(=O)O)[C@@H]1C[C@H]1S(=O)(=O)O`, the Ki is 81 µM in assay [2]; more than 300 µM in assay [3]; 77 µM in assay [4]; more than 300 µM in assay [5]; more than 300 µM in assay [6]; 34 µM in assay [7]. The compound also had a Ki in assay [1] of more than 300 µM.
